Results from patent publication US12617762B2, “Carboxy derivatives with antiinflamatory properties” (Sitryx Therapeutics Limited, priority 2019, dated 2026).
Where two headings read alike, the source gives them in different places.

What was measured:
[1] = Hepatocyte stability assay, human; format: in vitro ADME; settings: human, hepatocytes; for hepatocyte CLint at 10 μM: Hepatocyte stability Clint; for half-life at 10 μM: Hepatocyte stability T½
Outline: (§1)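 Cells and buffer-only plates are preincubated 10 min at 37° C; 10 μM test compound is then added to hepatocytes (0.5×10^6 cells/mL) and sampled to 60 min. Aliquots are crashed into acetonitrile, spun, and measured by LC-MS/MS to calculate intrinsic clearance from the decline of parent.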

[2] = system: IL-6 cytokine output from THP-1s; test: THP-1 AlphaLISA IL-6 cytokine inhibition assay; format: cell-based; settings: Homo sapiens, LPS then nigericin
Outline: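 THP-1 cells differentiated with PMA for 72 h, then pre-incubated with compound 30 min, stimulated with LPS 24 h, then Nigericin 1 h, all at 37° C. Supernatant IL-6 measured by AlphaLISA. Percentage inhibition normalized to +/− LPS plate controls.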

[3] = Hepatocyte stability assay, mouse; format: in vitro ADME; settings: mouse, hepatocytes; for hepatocyte CLint at 10 μM: Hepatocyte stability Clint; for half-life at 10 μM: Hepatocyte stability T½
Outline: as §1

[4] = system: IL-1β cytokine output from THP-1s; test: THP-1 AlphaLISA IL-1β cytokine inhibition assay; format: cell-based; settings: Homo sapiens
Outline: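 THP-1 cells differentiated with PMA for 72 h, pre-incubated with compound 30 min, then LPS-primed 24 h and Nigericin-stimulated 1 h (37° C./5% CO2). Supernatant IL-1β measured by AlphaLISA; percentage inhibition normalised to +LPS (high) and −LPS (low) plate controls.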

[5] = system: NRF2 (nuclear factor erythroid 2-related factor 2); test: NRF2 +/-GSH activation assay (DiscoverX PathHunter NRF2 translocation kit, U2OS cells); format: cell-based; settings: for NRF2 activation +GSH Emax / NRF2 activation −GSH Emax / −GSH Emax: normalised to DMF high control
Outline: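 U2OS PathHunter eXpress cells, 24 h post-plating, treated with compound ±GSH (+GSH arm: 30 min compound–GSH pre-incubation, 6 mM working GSH), then 6 h at 37 °C. NRF2 nuclear translocation read by enzyme-fragment-complementation chemiluminescence; % activation normalised to DMF high and untreated low controls.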

[6] = THP-1, differentiated THP-1 cells, LPS then nigericin
[7] = +GSH, 30 minute compound-GSH pre-incubation, read-out: NRF2 activation +GSH EC50
[8] = −GSH, U2OS PathHunter cells, 6 hours compound treatment, read-out: NRF2 activation −GSH EC50
[9] = THP-1, differentiated THP-1 cells
[10] = THP-1, Table 3, head to head comparison of exo vs endo double bond compounds
[11] = −GSH, Table 5 exo vs endo comparison, read-out: −GSH EC50
[12] = −GSH, Table 5 exo vs endo comparison

IC50 ([2]; differentiated THP-1 cells)	Structure (SMILES)	hepatocyte CLint at 10 μM [1]	half-life at 10 μM [1]	hepatocyte CLint at 10 μM [3]	half-life at 10 μM [3]	IC50 [4, 6]	EC50 [5, 7]	NRF2 activation +GSH Emax ([5]; +GSH)	EC50 [5, 8]	NRF2 activation −GSH Emax ([5]; −GSH)	IC50 [2, 9]	IC50 [4, 10]	EC50 [5, 11]	−GSH Emax [5, 12]
7.2 µM	C=C(Cc1ncc(CCCCCCCC)o1)C(=O)O [Example 59, 2-((5-octyloxazol-2-yl)methyl)acrylic acid]	> 460 µL/min/1e6 cells	< 3 min	> 460 µL/min/1e6 cells	< 3 min	6.9 µM	5.4 µM	136%	3.9 µM	213%				
	C=C(Cc1nc(CCCCCCCCC(F)(F)F)no1)C(=O)O [Example 60, 2-((3-(9,9,9-trifluorononyl)-1,2,4-oxadiazol-5-yl)methyl)acrylic acid]	137 µL/min/1e6 cells	11 min	257 µL/min/1e6 cells	6 min	11.2 µM	9 µM	110%	8.4 µM	195%	6 µM			
	C=C(Cc1nc(-c2ccc(OCCCC)cc2)no1)C(=O)O [Example 61, 2-((3-(4-butoxyphenyl)-1,2,4-oxadiazol-5-yl)methyl)acrylic acid]	52 µL/min/1e6 cells	29 min	301 µL/min/1e6 cells	4 min	13.9 µM	4.9 µM	124%	3.2 µM	198%	3.1 µM	13.9 µM	3.2 µM	198%
	C=C(Cc1nc(C2CC3(C2)CC2(CCC2)C3)no1)C(=O)O [Example 62, 2-((3-(dispiro[3.1.3^6.1^4]decan-2-yl)-1,2,4-oxadiazol-5-yl)methyl)acrylic acid]	57 µL/min/1e6 cells	26 min	119 µL/min/1e6 cells	10 min	17.9 µM	27.4 µM	149%	20 µM	229%	21.5 µM			
	C=C(Cc1nc(Cc2ccc(CCC)cc2)no1)C(=O)O [Example 70, 2-((3-(4-propylbenzyl)-1,2,4-oxadiazol-5-yl)methyl)acrylic acid]	13 µL/min/1e6 cells	117 min	58 µL/min/1e6 cells	26 min	25.3 µM	15.6 µM	147%	13.4 µM	188%	9.4 µM			
	C=C(Cc1nc(-c2ccc(C3(CCC)CC3)cc2)no1)C(=O)O [Example 72, 2-((3-(4-(1-propylcyclopropyl)phenyl)-1,2,4-oxadiazol-5-yl)methyl)acrylic acid]	69 µL/min/1e6 cells	27 min	28 µL/min/1e6 cells	43 min	7 µM	19.5 µM	151%	14.6 µM	189%	4.4 µM			
	C=C(Cc1nc(C(F)(F)c2ccc(Cl)cc2)no1)C(=O)O [Example 74, 2-((3-((4-chlorophenyl)difluoromethyl)-1,2,4-oxadiazol-5-yl)methyl)acrylic acid]	< 3 µL/min/1e6 cells	> 430 min	31 µL/min/1e6 cells	47 min	6.4 µM	44.4 µM	65%	24.4 µM	174%	9 µM			
	C=C(Cc1nc(-c2ccc(CCCCC(F)(F)F)cc2)no1)C(=O)O [Example 75, 2-((3-(4-(5,5,5-trifluoropentyl)phenyl)-1,2,4-oxadiazol-5-yl)methyl)acrylic acid]	80 µL/min/1e6 cells	15 min	480 µL/min/1e6 cells	4 min	13.7 µM	7.1 µM	188%	4.8 µM	263%	3.1 µM			
	C=C(Cc1nc(C2(c3ccc(S(F)(F)(F)(F)F)cc3)CC2)no1)C(=O)O [Example 77, 2-((3-(1-(4-(pentafluoro-λ^6-sulfaneyl)phenyl)cyclopropyl)-1,2,4-oxadiazol-5-yl)methyl)acrylic acid]	< 3 µL/min/1e6 cells	> 460 min	10 µL/min/1e6 cells	189 min	7.6 µM	52.7 µM	69%	48.1 µM	210%	14.6 µM	7.6 µM	48.1 µM	210%
	C=C(Cc1nc(-c2ccc(C(F)(F)CCCC)cc2)no1)C(=O)O [Example 79, 2-((3-(4-(1,1-difluoropentyl)phenyl)-1,2,4-oxadiazol-5-yl)methyl)acrylic acid]	147 µL/min/1e6 cells	11 min	> 460 µL/min/1e6 cells	< 3 min	6.7 µM	2.1 µM	181%	1.8 µM	271%	2.2 µM			
	C=C(Cc1noc(C(F)(F)CCCCCCC)n1)C(=O)O [Example 83, 2-((5-(1,1-difluorooctyl)-1,2,4-oxadiazol-3-yl)methyl)acrylic acid]	263 µL/min/1e6 cells	5 min	> 460 µL/min/1e6 cells	< 3 min	3.1 µM	3.8 µM	161%	3 µM	185%	3.4 µM			
18.5 µM	C=C(Cc1noc(C(F)(F)c2ccc(Br)cc2)n1)C(=O)O [Example 85, 2-((5-((4-bromophenyl)difluoromethyl)-1,2,4-oxadiazol-3-yl)methyl)acrylic acid]	20 µL/min/1e6 cells	77 min	131 µL/min/1e6 cells	13 min	13.6 µM	34.7 µM	208%	21.6 µM	282%				
	C=C(Cc1nc(C2(c3ccc(SC(F)(F)F)cc3)CC2)no1)C(=O)O [Example 86, 2-((3-(1-(4-((trifluoromethyl)thio)phenyl)cyclopropyl)-1,2,4-oxadiazol-5-yl)methyl)acrylic acid]	7 µL/min/1e6 cells	235 min	17 µL/min/1e6 cells	103 min	8.4 µM	35 µM	221%	18 µM	320%	9.4 µM	8.4 µM	18 µM	320%
	C=C(Cc1nc(C(F)(F)CCCCCCC)no1)C(=O)O [Example 88, 2-((3-(1,1-difluorooctyl)-1,2,4-oxadiazol-5-yl)methyl)acrylic acid]	134 µL/min/1e6 cells	12 min	> 460 µL/min/1e6 cells	< 3 min	3.1 µM	3 µM	205%	2.8 µM	237%	2.8 µM			
